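Results reflect a 48-hour exposure of cells in 96-well plates to compound at five concentrations. TGI: total growth inhibition.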
How the values were obtained:
Test in all cases: NCI anticancer screen, dose series, 48 h
SF-295 CNS = system: SF-295 CNS
OVCAR-5 ovarian = system: OVCAR-5 ovarian
SK-MEL-28 melanoma = system: SK-MEL-28 melanoma
SR leukemia = system: SR leukemia
HOP-62 NSCLC = system: HOP-62 NSCLC
SK-MEL-2 melanoma = system: SK-MEL-2 melanoma
BT-549 breast = system: BT-549 breast
MDA-MB-435 = system: MDA-MB-435
HT29 colon = system: HT29 colon
HOP-92 NSCLC = system: HOP-92 NSCLC
K-562 leukemia = system: K-562 leukemia
NCI/ADR-RES ovarian = system: NCI/ADR-RES ovarian
MDA-MB-231 breast = system: MDA-MB-231 breast
HCT-116 colon = system: HCT-116 colon
SK-MEL-5 melanoma = system: SK-MEL-5 melanoma
RXF 393 renal = system: RXF 393 renal
A498 renal = system: A498 renal
CCRF-CEM leukemia = system: CCRF-CEM leukemia
PC-3 prostate = system: PC-3 prostate
HS 578T breast = system: HS 578T breast
HL-60(TB) leukemia = system: HL-60(TB) leukemia
MCF7 breast = system: MCF7 breast
OVCAR-8 ovarian = system: OVCAR-8 ovarian
SNB-75 CNS = system: SNB-75 CNS
MOLT-4 leukemia = system: MOLT-4 leukemia
LOX IMVI melanoma = system: LOX IMVI melanoma
SNB-19 CNS = system: SNB-19 CNS
DU-145 prostate = system: DU-145 prostate
SN12C renal = system: SN12C renal
KM12 colon = system: KM12 colon
NCI-H226 lung = system: NCI-H226 lung
EKVX NSCLC = system: EKVX NSCLC
COLO 205 colon = system: COLO 205 colon
ACHN renal = system: ACHN renal
NCI-H23 lung = system: NCI-H23 lung
NCI-H522 lung = system: NCI-H522 lung
CAKI-1 renal = system: CAKI-1 renal
RPMI-8226 leukemia = system: RPMI-8226 leukemia
IGROV1 ovarian = system: IGROV1 ovarian
U251 CNS = system: U251 CNS
T-47D breast = system: T-47D breast
OVCAR-4 ovarian = system: OVCAR-4 ovarian
HCT-15 colon = system: HCT-15 colon
SW-620 colon = system: SW-620 colon
UACC-62 melanoma = system: UACC-62 melanoma
SK-OV-3 ovarian = system: SK-OV-3 ovarian
MALME-3M melanoma = system: MALME-3M melanoma
M14 melanoma = system: M14 melanoma
MDA-N = system: MDA-N
OVCAR-3 ovarian = system: OVCAR-3 ovarian
SF-539 CNS = system: SF-539 CNS
SF-268 CNS = system: SF-268 CNS
786-0 renal = system: 786-0 renal
NCI-H460 lung = system: NCI-H460 lung
TK-10 renal = system: TK-10 renal
UO-31 renal = system: UO-31 renal
UACC-257 melanoma = system: UACC-257 melanoma
A549 NSCLC = system: A549 NSCLC

## O=C1OC(=O)C2C1C(c1ccccc1[N+](=O)[O-])C=C(c1ccco1)N2c1ccncc1 (stereo not drawn)
SF-295 CNS
  TGI: 24.5 µM
OVCAR-5 ovarian
  TGI: 51.6 µM
SK-MEL-28 melanoma
  TGI: 24.5 µM
SR leukemia
  TGI: 1440 nM
HOP-62 NSCLC
  TGI: 38.2 µM
SK-MEL-2 melanoma
  TGI: 19.8 µM
BT-549 breast
  TGI: 35.4 µM
MDA-MB-435
  TGI: 52.6 µM
HT29 colon
  TGI: 6.13 µM
HOP-92 NSCLC
  TGI: 15.8 µM
K-562 leukemia
  TGI: 5.33 µM
NCI/ADR-RES ovarian
  TGI: 52.6 µM
MDA-MB-231 breast
  TGI: 32.9 µM
HCT-116 colon
  TGI: 3.31 µM
SK-MEL-5 melanoma
  TGI: 19.7 µM
RXF 393 renal
  TGI: 19.1 µM
A498 renal
  TGI: 26.9 µM
CCRF-CEM leukemia
  TGI: 17 µM
PC-3 prostate
  TGI: 28.1 µM
HS 578T breast
  TGI: > 100 µM
HL-60(TB) leukemia
  TGI: 5.63 µM
MCF7 breast
  TGI: 6.73 µM
OVCAR-8 ovarian
  TGI: 31.8 µM
SNB-75 CNS
  TGI: 35.2 µM
MOLT-4 leukemia
  TGI: 6.38 µM
LOX IMVI melanoma
  TGI: 3.82 µM
SNB-19 CNS
  TGI: 35.5 µM
DU-145 prostate
  TGI: 19.7 µM
SN12C renal
  TGI: 25 µM
KM12 colon
  TGI: 4.65 µM
NCI-H226 lung
  TGI: > 39.2 µM
EKVX NSCLC
  TGI: 39.7 µM
COLO 205 colon
  TGI: 23.9 µM
ACHN renal
  TGI: 3.24 µM
NCI-H23 lung
  TGI: 26.2 µM
NCI-H522 lung
  TGI: 6.17 µM
CAKI-1 renal
  TGI: 37.5 µM
RPMI-8226 leukemia
  TGI: 4.4 µM
IGROV1 ovarian
  TGI: 5.3 µM
U251 CNS
  TGI: 12 µM
T-47D breast
  TGI: 14 µM
OVCAR-4 ovarian
  TGI: 29.8 µM
HCT-15 colon
  TGI: 12.8 µM
SW-620 colon
  TGI: 15 µM
UACC-62 melanoma
  TGI: 36.4 µM
SK-OV-3 ovarian
  TGI: 32 µM
MALME-3M melanoma
  TGI: 40.6 µM
M14 melanoma
  TGI: > 50.5 µM
MDA-N
  TGI: 18.8 µM
OVCAR-3 ovarian
  TGI: 30.5 µM
SF-539 CNS
  TGI: 16.6 µM
SF-268 CNS
  TGI: 46.3 µM
786-0 renal
  TGI: 3.97 µM
NCI-H460 lung
  TGI: 31.9 µM
TK-10 renal
  TGI: > 26.9 µM
UO-31 renal
  TGI: 15.3 µM
UACC-257 melanoma
  TGI: 6.84 µM
A549 NSCLC
  TGI: 31.6 µM

Reference: PubChem BioAssay (NCI)
